Assays:
Hh pathway activity [1] = test: Hh-responsive reporter assay in first passage pancreas carcinoma xenograft cells; format: cell-based, human; details: PTCH-expressing primary xenografts; 3.0 μM cyclopamine
Text: (§1) Cells and tissues: Origins and sources of cells and tissues are described in the Table (below). First passage pancreatic cancer xenografts were derived from freshly harvested pancreaticoduodenectomy specimens as described^14. […] After reaching 25 mm in greatest dimension, xenograft tumors were harvested, minced, and plated into tissue culture vessels in RPMI, 20% Fetal Bovine Serum (FBS) for assays as described below. The diagnosis of frozen samples from gastric and pancreatic adenocarcinoma resections and adjacent normal stomach and pancreas was microscopically confirmed by two pathologists, and RNA was prepared as described^14.
(§2) Hh-responsive reporter assays: Hh-responsive firefly luciferase and control SV-40 Renilla luciferase reporter assays were performed on subconfluent triplicate cultures as described^22.

[2] = tested on: tumor cell lines from esophagus, stomach, biliary tract, and pancreas; test: cells
Description: Viable cell mass was determined by optical density measurements at 490 nm (O.D.490) at 2 and 4 days using the CellTiter96® colorimetric assay (Promega; Madison Wis.). Relative growth was calculated as {OD (day 4)-OD (day 2)}/OD (day 2).

[3] = tested on: HuCCT1 human cholangiocarcinoma xenograft; test: HuCCT1 xenograft treatment in athymic (nude) mice; format: in vivo; details: 50 mg/kg/day, subcutaneous injection
[4] = tested on: PZp53MED1 medulloblastoma cells; details: medulloblastoma-derived cells; cited from earlier work
Hh pathway activity [5] = test: Hh-inducible reporter assay in HuCCT1 cholangiocarcinoma cells; format: cell-based, human; details: purified SHH ligand to 25 nM
Description: as §2

[6] = tested on: single passage pancreatic cancer xenograft cells; test: Proliferation (MTS) assay in first passage pancreatic cancer xenograft cells; format: cell-based, human
Text: as §1

[7] = tested on: PZp53MED1 medulloblastoma cells; test: Proliferation assay in medulloblastoma cells; format: cell-based; details: medulloblastoma cells from a mouse model of Gorlin syndrome, loss of PTCH function

Row | Molecule | GLI reporter expression (Hh pathway activity [1]) | significant growth inhibition, dependence on PTCH mRNA expression ([2]; 3.0 μM cyclopamine, MTS assay) | inhibition at 3 µM ([2]; Homo sapiens, read-out: growth inhibition) | survival and adverse reactions ([3]; daily) | tumor regression (xenograft tumor volume) ([3]; within 14 days, tumors grown to 180 mm^3, n=9) | cell killing [4] | augmentation of reporter activity (Hh pathway activity [5]) | growth as a function of added SHH concentration ([6]; PX184 cells with 5E1 at a level just sufficient to block growth (0.1 μg/ml)) | growth ([6]; single passage pancreatic tumor xenograft that did not express PTCH mRNA (PX169)) | change in growth [7]
1 | CC1=C2C[C@H]3[C@@H](CC=C4C[C@@H](O)CC[C@@]43C)[C@@H]2CC[C@]12O[C@@H]1C[C@H](C)CN[C@H]1[C@H]2C [cyclopamine] | cyclopamine-sensitive | only in tumor lines expressing PTCH mRNA | 75 to 95% | all mice survived cyclopamine treatment without obvious adverse reactions | Complete or near complete regression of all nine treated tumors | can be killed by cyclopamine treatment | – | – | – | –
2 | SHH ligand: recombinant doubly lipid modified Sonic hedgehog (ShhNp) peptide | – | – | – | – | – | – | approximately 8 fold | Growth correlated positively with increasing concentrations | did not significantly affect growth | No significant ligand-induced or antibody-induced change in growth

Source: patent publication US20080118493A1, “Elevated Hedgehog Pathway Activity In Digestive System Tumors, And Methods Of Treating Digestive Sytem Tumors Having Elevated Hedgehog Pathway Activity” (priority 2003, published 2008)
